Test results from US20190330220A1, “METHODS OF MAKING SUBSTITUTED PORPHYRIN PHARMACEUTICAL COMPOUNDS AND COMPOSITIONS” (Duke University, priority 2016, published 2019).
Where two headings read alike, the source gives them in different places.

Assays:
[1] = background statement; cited from earlier work
[2] = electrochemistry, Mn(III)/Mn(II) reduction potential; format: physicochemical
Protocol: (§1) Electrochemistry, electrospray-ionization mass spectrometry (ESI-MS), UV-visible spectroscopy and SOD-like activity were carried out as previously described.^29, 32. All quantum chemistry calculations have been performed at the M06-2X/6-311++G(2d,p)//M06-2X/6-31+G(d) DFT level^33-38 using the Gaussian 09 software.^39 All frequency calculations were carried out at […] and used to characterize minima and transition states. The solvent effect has been taken into account using the CPCM continuum solvation model^40 for N,N-dimethylformamide (DMF). The free energies of reactants, transition states, and products have been obtained from the ideal gas partition functions for the structures optimized in solution^40 and corrected to include the compression work of the gas^41 (or liberation free energy^42) to standard 1 mol L^−1 concentration. The coulombic stabilization energy due to the formation of ionic pairs in DMF has also been included in the final results by approximating each ion as a sphere, whose volume was considered the same as that of the solute cavity;^43 the distance between cation and anion in the ionic pair was taken as the sum of the two sphere radii.

SOD-like activity = format: biochemical
Protocol: as §1

[3] = rat Comet assay (genotoxicity); conditions: pre-clinical studies
[4] = toxicity compared with analogous alkyl-chain Mn porphyrins
[5] = lipophilicity of Mn porphyrin complex
cells = conditions: compared with ethyl analogue, background statement; cited from earlier work

CC[n+]1ccccc1-c1c2nc(c(-c3cccc[n+]3CC)c3ccc([n-]3)c(-c3cccc[n+]3CC)c3nc(c(-c4cccc[n+]4CC)c4ccc1[n-]4)C=C3)C=C2.[Mn+3] [MnTE-2-PyP^5+, Mn(III) meso-tetrakis-(N-ethylpyridinium-2-yl)porphyrins]
lipophilicity [1]: low lipophilicity

CCCCOCC[n+]1ccccc1C1=C2C=CC3=[N+]2[Mn]24[n]5c1ccc5C(c1cccc[n+]1CCOCCCC)=C1C=CC(=[N+]12)C(c1cccc[n+]1CCOCCCC)=c1ccc([n]14)=C3c1cccc[n+]1CCOCCCC [MnTnBuOE-2-PyP^5+, Mn(III) meso-tetrakis-(N-n-butoxyethylpyridinium-2-yl)porphyrin]
Mn(III)/Mn(II) reduction potential (E1/2) [2]: high | SOD-like activity (SOD-like activity): high | genotoxicity in a rat Comet assay [3]: lack of genotoxicity | toxicity [4]: low toxicity | fold less toxic than analogous ortho alkyl MnP^5+ ([4]; relative to analogous alkyl chains): 4-5 fold | lipophilicity [5]: lipophilic

CCCCCC[n+]1ccccc1-c1c2nc(c(-c3cccc[n+]3CCCCCC)c3ccc([n-]3)c(-c3cccc[n+]3CCCCCC)c3nc(c(-c4cccc[n+]4CCCCCC)c4ccc1[n-]4)C=C3)C=C2.[Mn+3] [MnTnHex-2-PyP^5+, Mn(III) meso-tetrakis-(N-n-hexylpyridinium-2-yl)porphyrin]
accumulation in cells (cells): higher levels than its ethyl analogue
